Where two headings read alike, the source gives them in different places.

As usually defined, the Cmax is the peak of the concentration-time curve. For orientation: half-life means how long it takes for the measured level to halve. As a reminder, the AUC is concentration integrated over time. Broadly, the clearance is the rate of elimination divided by the concentration. For orientation: Tmax means the time from dosing to the highest level.

Series [1] deals with mouse bone marrow derived macrophages. Kind of series: TLR4-mediated necroptosis induced by LPS/z-VAD in mouse bone marrow-derived macrophages. Format: cell-based. The conditions noted are these: mouse BMDM; 2 h pretreatment, LPS 20 ng/ml plus z-VAD for 24 h. The source says:
Human colon cancer HT-29 and mouse fibrosarcoma L929 cells were from ATCC. Mouse embryonic fibroblasts (MEF), HT-29 cells stably expressing RIPK3-shRNA and shRNA resistant scramble Flag-tagged RIPK3 (W46), and NIH3T3 cell line stably expressing RIPK3 fused to mutant FK506-binding protein (NIH3T3-RIPK3) were kindly provided by Dr. Xiaodong Wang [National Institute of Biological Sciences (NIBS), Beijing]. HeLa-MLKL (1-190) cell line was a gift from Dr. Zhigao Wang (University of Texas Southwestern Medical Center at Dallas). These cells were cultured in Dulbecco’s modified Eagle’s medium (Hyclone) supplemeted with 10% fetal bovine serum (Invitrogen) and 2 mM L-glutamine (Invitrogen) in a humidified incubator at 37°C and 5% CO2. NIH3T3-RIPK3 was cultured in complete medium containing […] G418 (Calbiochem). […]
(§1) Cells were seeded in 96-well plates and then treated as indicated. The cell viability was determined by assessment of ATP levels using the CellTiter-Glo Luminescent Cell Viability Assay kit following the manufacture’s instructions (Promega). Luminescence was calculated with SpectraMax i3x (Molecular Devices).
Cell viability was determined by measuring ATP levels. […] After 5 h, cell viability was determined by measuring ATP levels and ICP6 mRNA expression was detected using viral genome extracted from cell culture supernatant. *P < 0.05. **P < 0.01. ***P < 0.001.

Another series addresses T1, human RIPK1 (Homo sapiens, UniProt Q13546).
T1 construct: purchased SignalChem
Kind of series: In vitro kinase activity assay (ADP-Glo), RIPK1. Format: biochemical. The conditions noted are these: at 10 μM; ATP 50 μM, MBP 20 μM. Here is the method:
The recombinant human RIPK1 or RIPK3 protein was incubated with the control DMSO or the indicated compound for around 15 min in the assay buffer (25 mM HEPES PH7.2, 12.5 mM MnCl2, 5 mM EGTA, 20 mM MgCl2, 12.5 mM β-glycerol phosphate, 2 mM EDTA, and 2 mM DTT). ATP (50 μM) and the substrate MBP (20 μM) were then added to the reaction at room temperature for 2 h. The kinase activity was calculated by the measuring the luminescence after the addition of the ADP-Glo Kinase Assay kit according to the manufacture’s instructions (Promega).
(§2) In vitro kinase activity assays using recombinant RIPK3 and RIPK1 were performed as described in the section “Materials and Methods.” Data represent mean value ± standard deviation. […] NIH3T3-RIPK3 cells were pretreated with indicated compounds for 2 h and subsequently treated with AP20187 (60 nM) for 24 h. Cell viability was determined by measuring ATP levels. […] HeLa-MLKL (1–190) cells were induced by doxycycline (1 μg/ml) for 24 h. Cells were pretreated with indicated compounds for 2 h and subsequently treated with AP20187 (60nM) for 24h. Cell viability was determined by measuring ATP levels. […] (F) MEFs were treated as indicated for 3 h. Cell lysates were harvest and subjected to western-blot analysis for full length and cleaved caspase 3.
On the technique in general: In ADP-Glo the light output rises with the ADP produced.

Series [2] in a line: In vivo mouse pharmacokinetic study. The conditions noted are these: male ICR mouse. On the procedure: Cytochrome P450 (CYP) inhibitory potency was determined by industrial standard methods as reported previously ([Dong et al., 2015]). Methods to determine potassium channel hERG inhibition and in vivo pharmacokinetic parameters have been previously published ([Lu et al., 2017]).
(C) Pharmacokinetic parameters of Zharp-99 determined in male ICR mouse.

The next series concerns L929 cells. As to the kind of experiment: HSV-1-induced necroptosis in L929 cells (cell viability). Format: cell-based, mouse. The note with it: 2 h pretreatment, 24 h after HSV-1 infection. Here is the method:
as §1
Cell viability was determined by measuring ATP levels. L, LPS; Z, z-VAD. […] After 5 h, cell viability was determined by measuring ATP levels and ICP6 mRNA expression was detected using viral genome extracted from cell culture supernatant. *P < 0.05. **P < 0.01. ***P < 0.001.

The next series has as its system MEFs. Kind of series: Activation of caspase-3 / apoptosis in MEFs (western blot, cell viability). The class given is cell-based. Here is the method: as §2
In general terms: A western blot detects proteins with antibodies after separation by electrophoresis.

Series [3] concerns phosphorylation of RIPK1, RIPK3, and MLKL. As to the kind of experiment: Western blot of phosphorylation of RIPK1, RIPK3 and MLKL in L929 cells upon necroptotic stimuli. Format: cell-based, mouse. The conditions noted are these: 2 h pretreatment, TNF-α/z-VAD 4 h. Here is the method:
The cell pellets were harvested and dissolved in lysis buffer (20 mM Tris–HCl, pH 7.4 150 mM NaCl, 1% Triton X-100, 1 mM Na3VO4, 10% glycerol, 25 mM β-glycerol-phosphate, 0.1 mM PMSF, with the Sigma phosphatase inhibitors and the Roche Pierce protease inhibitor set). The re-suspended cell pellet was then incubated on ice for 20 min, followed by centrifugation at 13000 × g for 20 min at 4°C. The supernatants were collected and protein concentrations were measured using the BCA Protein Assay Kit (Thermo Fisher Scientifc, United States). Finally, cell lysates were subjected for western-blot analysis of the indicated antibodies.
Cell lysates were prepared for immunoprecipitation using an anti-Flag antibody. The levels of RIPK3 and RIPK1 in the immunocomplex were determined by western blot analysis.

T1 sequence (Q13546 1-327 limits assumed): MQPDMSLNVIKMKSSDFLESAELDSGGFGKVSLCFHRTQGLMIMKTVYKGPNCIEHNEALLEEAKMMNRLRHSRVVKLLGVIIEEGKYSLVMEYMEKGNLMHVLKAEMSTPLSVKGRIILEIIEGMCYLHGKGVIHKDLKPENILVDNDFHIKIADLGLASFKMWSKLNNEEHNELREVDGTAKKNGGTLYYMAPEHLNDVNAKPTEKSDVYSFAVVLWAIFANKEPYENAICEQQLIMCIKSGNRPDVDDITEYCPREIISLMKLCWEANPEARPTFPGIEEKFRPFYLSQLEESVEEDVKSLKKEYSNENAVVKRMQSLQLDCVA

`O=S1(=O)C=C(C2CC2)c2cc3nccc(Nc4ccc5scnc5c4)c3cc21` [Zharp-99]: in series [1], the “inhibition of TLR4-mediated necroptosis induced by LPS/z-VAD” value was “potently blocked”. Besides, the “effect on RIPK1 kinase activity” value at human RIPK1 was “did not affect”. In series [2] (2 mg/kg (iv)), the peak level (Cmax) was 1390 ng/mL and the half-life is 1.5 h. For the same compound, in series [2] (2 mg/kg (iv), read-out: AUC), the AUC turned out to be 990 ng·h/mL. The clearance in series [2] (2 mg/kg (iv), read-out: CL (clearance)) is 33 mL/min/kg. For the same compound, in series [2] (2 mg/kg (iv), read-out: Vz (volume of distribution)), the Vd worked out at 4.4 L/kg. Besides, in series [2] (10 mg/kg (po)), the Cmax came to 2650 ng/mL, the Tmax is 1 h and the half-life was 1.2 h. Also, in series [2] (10 mg/kg (po), read-out: AUC (exposure)), the AUC turned out to be 8220 ng·h/mL. Besides, the “inhibition of HSV-1 induced necroptosis” value in the series on L929 cells is on record as “significantly inhibited”. Also, in the series with MEFs (MEFs), the “induction of apoptosis compared to GSK’872” value is recorded as “more potent”. Moreover, the “activation of caspase-3 and cell death” value in the series with MEFs (especially in mouse cells, MEFs treated 3 h (western blot)) is “induced activation of caspase-3 and cell death in a dose-dependent manner”. In addition, in series [3], the “phosphorylation of MLKL” value was “blocked” and the “phosphorylation of RIPK3” value is listed as “blocked”.
